Positions count from the first letter of the chain named.
Tests used:
[1] = biological target: T1, ROS-GC1 (rod outer segment guanylate cyclase type 1), full-length recombinant (Bos taurus, UniProt P55203, A1013R/N1009A); assay: biochemical
T1 construct: gene GUCY2D
T1 sequence (P55203 57-1110 N1009A/A1013R): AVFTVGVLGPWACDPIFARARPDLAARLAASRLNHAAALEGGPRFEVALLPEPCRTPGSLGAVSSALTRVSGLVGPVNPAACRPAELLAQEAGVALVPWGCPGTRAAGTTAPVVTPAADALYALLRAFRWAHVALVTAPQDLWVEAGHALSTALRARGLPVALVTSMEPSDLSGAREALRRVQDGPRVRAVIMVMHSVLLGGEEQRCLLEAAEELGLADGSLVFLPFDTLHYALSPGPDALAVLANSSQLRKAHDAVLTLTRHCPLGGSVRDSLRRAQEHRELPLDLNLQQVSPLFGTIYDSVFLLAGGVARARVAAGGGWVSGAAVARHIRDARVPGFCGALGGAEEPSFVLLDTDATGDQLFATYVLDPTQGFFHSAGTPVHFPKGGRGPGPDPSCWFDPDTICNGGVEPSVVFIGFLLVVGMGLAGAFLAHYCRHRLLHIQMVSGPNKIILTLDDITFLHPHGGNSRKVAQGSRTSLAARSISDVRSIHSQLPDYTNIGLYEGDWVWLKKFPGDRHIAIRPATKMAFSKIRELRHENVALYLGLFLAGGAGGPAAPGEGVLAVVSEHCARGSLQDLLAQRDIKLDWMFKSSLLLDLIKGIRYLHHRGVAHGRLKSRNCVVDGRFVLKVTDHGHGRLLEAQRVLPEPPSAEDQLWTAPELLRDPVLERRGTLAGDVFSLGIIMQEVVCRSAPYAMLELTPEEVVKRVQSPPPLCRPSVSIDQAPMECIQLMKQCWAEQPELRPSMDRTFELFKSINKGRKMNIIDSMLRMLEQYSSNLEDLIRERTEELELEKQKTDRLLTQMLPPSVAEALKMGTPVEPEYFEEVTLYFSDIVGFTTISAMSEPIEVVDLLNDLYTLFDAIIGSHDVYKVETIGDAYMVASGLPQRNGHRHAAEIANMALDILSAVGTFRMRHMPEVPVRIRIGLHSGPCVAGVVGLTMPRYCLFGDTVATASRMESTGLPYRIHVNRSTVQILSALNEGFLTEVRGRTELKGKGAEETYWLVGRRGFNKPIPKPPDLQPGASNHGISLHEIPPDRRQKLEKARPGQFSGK

[2] = biological target: T2, ROS-GC1 (rod outer segment guanylate cyclase type 1), full-length recombinant (Bos taurus, UniProt P55203, A1013R/D890A); assay: biochemical
T2 construct: gene GUCY2D
T2 sequence (P55203 57-1110 D890A/A1013R): T1 sequence (P55203 57-1110 N1009A/A1013R) with D834A, A953N

SMILES: O=C(O)O [bicarbonate]
- EC50 [1]: ~25 mM
- EC50 [2]: ~30 mM

From PMC5461267, “Membrane Guanylate Cyclase catalytic Subdomain: Structure and Linkage with Calcium Sensors and Bicarbonate” (Frontiers in Molecular Neuroscience, 2017)
